Assay results taken from patent US8933228B2, “Respiratory formulations and compounds for use therein” (Respivert, Ltd., priority 2010, dated 2015).

Legend:
[1] = tested on: TNFα release in THP-1 cells; assay: LPS-induced TNFα release in THP-1 cells; assay type: cell-based; details: Homo sapiens; THP-1 cells, LPS 3 μg/mL, 4 hr; read-out: THP1 (LPS) TNFα IC50
Protocol: The inhibition of TNFα production was calculated at each concentration by comparison with vehicle control.

[2] = target: cSrc enzyme (Homo sapiens (Human), UniProt P12931); assay: c-SRC enzyme inhibition assay (FRET, Z'-LYTE); assay type: biochemical; details: read-out: Enzyme Profile: IC50 Values cSrc
[3] = target: p38 MAPK alpha (MAPK14) (Homo sapiens (Human), UniProt Q16539); assay: Enzyme inhibition assay (FRET, Z-LYTE), p38 MAPK alpha via MAPKAP-K2 activation; assay type: biochemical; details: read-out: Enzyme Profile: IC50 Values p38α
Procedure, shortened: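 Recombinant p38 MAPKα was preincubated with compound 2 hr at RT. Its activity was measured indirectly through MAPKAP-K2 activation/phosphorylation, read by Z-LYTE FRET after 1 hr protease development. Phosphorylation was taken from the coumarin/fluorescein emission ratio.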

[4] = tested on: ICAM-1 expression in BEAS2B cells; assay: Poly I:C-induced ICAM-1 induction in BEAS2B cells; assay type: cell-based; details: Homo sapiens, BEAS-2B; BEAS2B cells, poly I:C 1 μg/mL, 18 hr; read-out: BEAS2B (polyIC) ICAM1 IC50
Procedure, shortened: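 Human bronchial epithelial BEAS2B cells pre-incubated 2 hr with test compounds at final concentrations, then transfected with poly I:C (1 μg/mL) using Oligofectamine. Cell-surface ICAM-1 quantified by cell-based ELISA with HRP-conjugated anti-rabbit IgG secondary.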

[5] = target: p38 MAPK γ (MAPK12) (Homo sapiens (Human), UniProt P53778); assay: Enzyme inhibition assay (FRET, Z-LYTE), p38 MAPK gamma; assay type: biochemical; details: read-out: Enzyme Profile: IC50 Values p38γ
Procedure, shortened: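 Recombinant phosphorylated human p38γ preincubated with compound 2 hr at RT in HEPES buffer, then reacted 1 hr with 2 μM FRET peptide and 100 μM ATP. Protease development 1 hr; phosphorylation derived from coumarin/fluorescein emission ratio.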

[6] = tested on: Differentiated U937 cells; assay: MTT assay: cell viability; assay type: cell-based, human; details: 1 μg/ml; for d-U937 MTT Assay 4 h: 5% FCS; for d-U937 MTT Assay 24 h: 10% FCS
Procedure, shortened: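 Differentiated U937 cells pre-incubated with compound either 4 hr in 5% FCS or 24 h in 10% FCS, then 1 hr MTT. Formazan dissolved in DMSO, absorbance at 550 nm. Percentage viability loss relative to 0.5% DMSO vehicle; apparent increases appear as negative percentages.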

[7] = tested on: IL-8 release in d-U937 cells; assay: LPS-induced IL-8 release in d-U937 cells; assay type: cell-based; details: Homo sapiens, dU937; d-U937 cells, LPS 0.1 μg/mL, 4 hr; read-out: d-U937 (LPS) IL-8 IC50
Procedure, shortened: (§1)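 U937 cells made macrophage-like by 48–72 h with PMA (100 ng/mL), then stimulated with LPS (E. coli O111:B4) for 4 h. Supernatant TNFα and IL-8 measured by sandwich ELISA; inhibition versus vehicle control at each concentration, REC50 from concentration-response curve.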

[8] = target: HCK enzyme (Homo sapiens (Human), UniProt P08631); assay: HCK enzyme inhibition assay (FRET, Z'-LYTE); assay type: biochemical; details: read-out: Enzyme Profile: IC50 Values HCK
[9] = tested on: TNFα release in d-U937 cells; assay: LPS-induced TNFα release in d-U937 cells; assay type: cell-based; details: Homo sapiens, dU937, LPS 0.1 μg/mL, 4 hr, relative to 10 μg/mL BIRB796, read-out: d-U937 (LPS) TNFα REC50
Procedure, shortened: as §1

[10] = tested on: HRV16; assay: Rhinovirus-titre assay; assay type: cell-based, human rhinovirus; details: HRV16; for inhibition at 0.04 µg/mL: Human rhinovirus sp., cell not marked b, test compounds 0.04 μg/mL per method (footnote b, 0.2 μg/mL), read-out: HRV titre (inhibitory %): % inhibition observed vs. HRV16 infection control

IC50 [1] | IC50 [2] | IC50 [3] | IC50 [5] | IC50 [7] | IC50 [8] | EC50 [9] | Structure (SMILES) | IC50 [4] | d-U937 MTT Assay 4 h [6] | d-U937 MTT Assay 24 h [6] | inhibition at 0.04 µg/mL [10] | NBEC (HRV) HRV titre Relative anti-viral activity ([10]; at 0.04 μg/mL vs. pleconaril at 0.1 μg/mL)
13 nM | 7 nM | 5 nM | 74 nM | 9.4 nM | 4 nM | 8.2 nM | CSc1ccc(-n2nc(C(C)(C)C)cc2NC(=O)Nc2ccc(Oc3ccnc4[nH]c(=O)cnc34)c3ccccc23)cc1 [Example 33, 1-(3-(tert-butyl)-1-(4-(methylthio)phenyl)-1H-pyrazol-5-yl)-3-(4-((3-oxo-3,4-dihydropyrido[2,3-b]pyrazin-8-yl)oxy)naphthalen-1-yl)urea] | 3.2 nM | − (− and + indicate the result is below and above the no significant effect threshold, respectively (<30% inhibition at a concentration of 1 μg/ml)) | − (− and + indicate the result is below and above the no significant effect threshold, respectively (<30% inhibition at a concentration of 1 μg/ml)) | 80% | 
116 nM | 10 nM | 4 nM | 45 nM | 47 nM | 18 nM | 55 nM | CC(C)(C)c1cc(NC(=O)Nc2ccc(Oc3ccnc4[nH]c(=O)cnc34)c3ccccc23)n(-c2ccc(O)cc2)n1 [Example 16, 1-(3-(tert-Butyl)-1-(4-hydroxyphenyl)-1H-pyrazol-5-yl)-3-(4-((3-oxo-3,4-dihydropyrido[2,3-b]pyrazin-8-yl)oxy)naphthalen-1-yl)urea] | 172 nM | − (− and + indicate the result is below and above the no significant effect threshold, respectively (<30% inhibition at a concentration of 1 μg/ml)) | − (− and + indicate the result is below and above the no significant effect threshold, respectively (<30% inhibition at a concentration of 1 μg/ml)) | 8% | 

Second part, the compound before the results:

Structure (SMILES) | IC50 [1] | IC50 [2] | IC50 [3] | IC50 [5] | IC50 [7] | IC50 [8] | EC50 [9] | IC50 [4] | d-U937 MTT Assay 4 h [6] | d-U937 MTT Assay 24 h [6] | inhibition at 0.04 µg/mL [10] | NBEC (HRV) HRV titre Relative anti-viral activity ([10]; at 0.04 μg/mL vs. pleconaril at 0.1 μg/mL)
Cc1ccc(-n2nc(C(C)(C)C)cc2NC(=O)Nc2ccc(Oc3ncnc4[nH]c(=O)[nH]c34)c3ccccc23)cc1 [Example 15, 1-(3-(tert-Butyl)-1-(p-tolyl)-1H-pyrazol-5-yl)-3-(4-((8-oxo-8,9-dihydro-7H-purin-6-yl)oxy)naphthalen-1-yl)urea] | 126 nM | 35 nM | 30 nM | 539 nM | 164 nM | 36 nM | 33 nM | > 182 nM | − (− and + indicate the result is below and above the no significant effect threshold, respectively (<30% inhibition at a concentration of 1 μg/ml)) | − (− and + indicate the result is below and above the no significant effect threshold, respectively (<30% inhibition at a concentration of 1 μg/ml)) | 8% | 
Cc1ccc(-n2nc(C(C)(C)C)cc2NC(=O)Nc2ccc(Oc3ccnc4[nH]c(=O)c(C)nc34)c3ccccc23)cc1 [Example 8, 1-(3-(tert-butyl)-1-(p-tolyl)-1H-pyrazol-5-yl)-3-(4-((2-methyl-3-oxo-3,4-dihydropyrido[2,3-b]pyrazin-8-yl)oxy)naphthalen-1-yl)urea] | 2.5 nM | 7 nM | 7 nM | 99 nM | 1.7 nM | 5 nM | 0.3 nM | 0.6 nM | − (− and + indicate the result is below and above the no significant effect threshold, respectively (<30% inhibition at a concentration of 1 μg/ml)) | − (− and + indicate the result is below and above the no significant effect threshold, respectively (<30% inhibition at a concentration of 1 μg/ml)) | 91% | 
Cc1ccc(-n2nc(C(C)(C)C)cc2NC(=O)Nc2ccc(Oc3ccnc4[nH]c(=O)n(C)c34)c3ccccc23)cc1 [Example 3, 1-(3-tert-butyl-1-p-tolyl-1H-pyrazol-5-yl)-3-(4-(1-methyl-2-oxo-2,3-dihydro-1H-imidazo[4,5-b]pyridin-7-yloxy)naphthalen-1-yl)urea] | 0.7 nM | 4 nM | 1 nM | 24 nM | 17 nM | 2 nM | 1.1 nM | 4.1 nM | − (− and + indicate the result is below and above the no significant effect threshold, respectively (<30% inhibition at a concentration of 1 μg/ml)) | − (− and + indicate the result is below and above the no significant effect threshold, respectively (<30% inhibition at a concentration of 1 μg/ml)) | 36% | 0.2
COc1ccc(-n2nc(C(C)(C)C)cc2NC(=O)Nc2ccc(Oc3ccnc4[nH]c(=O)n(C(C)C)c34)c3ccccc23)cc1 [Example 12] | 1.3 nM | 12 nM | 11 nM | 495 nM | 1.1 nM | 8 nM | 0.5 nM | 1.9 nM | − (− and + indicate the result is below and above the no significant effect threshold, respectively (<30% inhibition at a concentration of 1 μg/ml)) | − (− and + indicate the result is below and above the no significant effect threshold, respectively (<30% inhibition at a concentration of 1 μg/ml)) | 94% | 
